# US20250011368A1, “DLL3 TARGETING PEPTIDES AND CONSTRUCTS THEREOF” (MARIANA ONCOLOGY INC., priority 2023, published 2025)
# Bridge positions count the residues as written; N and C are the ends. Square brackets hold non-standard residues; d marks the D form. Peptide text beside a SMILES is read from it. * marks the point of attachment. ξ: configuration not given here. X2 = O=C(O)CN1CCN(CC(=O)O)CCN(CC(=O)NCCOCCOCCOCCOCCOCCOCCOCCOCC(=O)*)CCN(CC(=O)O)CC1; X4 = O=C(O)CN1CCN(CC(=O)O)CCN(CC(=O)N[C@H]2CC[C@H](CC(=O)*)CC2)CCN(CC(=O)O)CC1; DOTA = O=C(O)CN1CCN(CC(=O)O)CCN(CC(=O)*)CCN(CC(=O)O)CC1; Trp(5-OMe) = COc1ccc2[nH]cc(C[C@H](N)C(=O)O)c2c1; Trp(7-aza) = N[C@@H](Cc1c[nH]c2ncccc12)C(=O)O; 1Nal = N[C@@H](Cc1cccc2ccccc12)C(=O)O; 2Nal = N[C@@H](Cc1ccc2ccccc2c1)C(=O)O; ξW = NC(Cc1c[nH]c2ccccc12)C(=O)O; Octanoyl = CCCCCCCC(=O)*; Dab = NCC[C@H](N)C(=O)O; Hexanoyl = CCCCCC(=O)*; ξC = NC(CS)C(=O)O
# Molecular target: T1, human DLL3 (Homo sapiens, UniProt Q9NYJ7)
# T1 sequence (Q9NYJ7 27-618): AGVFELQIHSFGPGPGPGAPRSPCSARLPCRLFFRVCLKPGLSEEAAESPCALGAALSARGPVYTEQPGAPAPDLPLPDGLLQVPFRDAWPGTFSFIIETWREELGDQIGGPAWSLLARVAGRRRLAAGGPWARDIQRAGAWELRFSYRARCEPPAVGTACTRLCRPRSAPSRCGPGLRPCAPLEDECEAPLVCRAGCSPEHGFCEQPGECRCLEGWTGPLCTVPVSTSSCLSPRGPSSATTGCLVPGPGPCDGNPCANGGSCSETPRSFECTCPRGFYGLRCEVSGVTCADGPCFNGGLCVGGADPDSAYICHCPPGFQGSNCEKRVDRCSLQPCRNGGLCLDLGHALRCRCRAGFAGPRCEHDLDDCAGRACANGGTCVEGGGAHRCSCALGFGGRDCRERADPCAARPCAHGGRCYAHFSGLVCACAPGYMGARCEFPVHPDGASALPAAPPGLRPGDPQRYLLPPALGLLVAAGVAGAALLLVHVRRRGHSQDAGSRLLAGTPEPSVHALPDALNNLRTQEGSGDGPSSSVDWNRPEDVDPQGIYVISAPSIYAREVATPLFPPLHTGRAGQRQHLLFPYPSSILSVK
# Experiment: Affinity determination by Surface Plasmon Resonance (SPR)
# Assay type: binding
# Conditions: 25° C., biotinylated human DLL3 immobilized on streptavidin sensor chip, 1:1 binding model; read-out: SPR KD
# Method: SPR studies were performed on the compounds disclosed herein using the following protocol.
# Biotinylated target ligand human DLL3 was immobilized on a streptavidin sensor chip. A reference surface was set up for nonspecific binding and refractive index changes. For analysis of the kinetics of interactions, varying concentrations of samples were injected at a flow rate of 100 μL/minute using running buffer containing 20 mM phosphate buffer with 2.7 mM KCl, 137 mM NaCl, 0.05% Surfactant P20 and 2% DMSO. Sensorgram curves were fitted with 1:1 binding model, and affinity and kinetic parameters were obtained using Biacore Insight evaluation 4.0. software.
row,Structure (SMILES),Kd [nM]
1,"CC[C@H](C)[C@H](NC(=O)[C@@H](NC(=O)[C@H](Cc1c[nH]c2ccccc12)NC(C)=O)[C@@H](C)O)C(=O)N[C@H]1CSSC[C@@H](C(=O)N[C@@H](Cc2c[nH]c3ccccc23)C(=O)N2CCC[C@H]2C(=O)N[C@H](CCCCNC(=O)C[C@H]2CC[C@H](NC(=O)CN3CCN(CC(=O)O)CCN(CC(=O)O)CCN(CC(=O)O)CC3)CC2)C(N)=O)NC(=O)[C@H](CC(=O)O)NC(=O)[C@H](Cc2cnc[nH]2)NC(=O)[C@H](Cc2c[nH]c3ccccc23)NC(=O)[C@H](CC(N)=O)NC(=O)[C@H](CC(N)=O)NC1=O [compound 48, Ac-W-T-I-C(3)-N-N-W-H-D-C(3)-W-P-(D-Lys)-CyHex-DOTA-NH2] (Ac-WTICNNWHDCWP[dK](X4)-NH2; disulfide 4-10)",1 to 10
2,"CC[C@H](C)[C@H](NC(=O)[C@@H](NC(=O)[C@H](Cc1c[nH]c2ccccc12)NC(C)=O)[C@@H](C)O)C(=O)N[C@H]1CSSC[C@@H](C(=O)N[C@@H](Cc2c[nH]c3ccccc23)C(=O)N2CCC[C@H]2C(=O)N[C@H](CCCCNC(=O)CN2CCN(CC(=O)O)CCN(CC(=O)O)CCN(CC(=O)O)CC2)C(N)=O)NC(=O)[C@H](CC(=O)O)NC(=O)[C@H](Cc2cnc[nH]2)NC(=O)[C@H](Cc2cccc3ccccc23)NC(=O)[C@H](CC(N)=O)NC(=O)[C@H](CC(N)=O)NC1=O [compound 74, Ac-W-T-I-C(3)-N-N-(1Nal)-H-D-C(3)-W-P-[D-Lys(DOTA)]-NH2] (Ac-WTICNN[1Nal]HDCWP[dK](DOTA)-NH2; disulfide 4-10)",1 to 10
3,"CC[C@H](C)[C@H](NC(=O)[C@@H](NC(=O)[C@H](Cc1c[nH]c2ccccc12)NC(C)=O)[C@@H](C)O)C(=O)N[C@H]1CSSC[C@@H](C(=O)N[C@@H](Cc2cccc3ccccc23)C(=O)N2CCC[C@H]2C(=O)N[C@H](CCCCNC(=O)CN2CCN(CC(=O)O)CCN(CC(=O)O)CCN(CC(=O)O)CC2)C(N)=O)NC(=O)[C@H](CC(=O)O)NC(=O)[C@H](Cc2cnc[nH]2)NC(=O)[C@H](Cc2c[nH]c3ccccc23)NC(=O)[C@H](CC(N)=O)NC(=O)[C@H](CC(N)=O)NC1=O [compound 76, Ac-W-T-I-C(3)-N-N-W-H-D-C(3)-(1Nal)-P-[D-Lys(DOTA)]-NH2] (Ac-WTICNNWHDC[1Nal]P[dK](DOTA)-NH2; disulfide 4-10)",1 to 10
4,"CC[C@H](C)[C@H](NC(=O)[C@@H](NC(=O)[C@H](Cc1c[nH]c2ccccc12)NC(C)=O)[C@@H](C)O)C(=O)N[C@H]1CSSC[C@@H](C(=O)N[C@@H](Cc2ccc3ccccc3c2)C(=O)N2CCC[C@H]2C(=O)N[C@H](CCCCNC(=O)CN2CCN(CC(=O)O)CCN(CC(=O)O)CCN(CC(=O)O)CC2)C(N)=O)NC(=O)[C@H](CC(=O)O)NC(=O)[C@H](Cc2cnc[nH]2)NC(=O)[C@H](Cc2c[nH]c3ccccc23)NC(=O)[C@H](CC(N)=O)NC(=O)[C@H](CC(N)=O)NC1=O [compound 77, Ac-W-T-I-C(3)-N-N-W-H-D-C(3)-(2Nal)-P-[D-Lys(DOTA)]-NH2] (Ac-WTICNNWHDC[2Nal]P[dK](DOTA)-NH2; disulfide 4-10)",10 to 100
5,"CC[C@H](C)[C@H](NC(=O)[C@@H](NC(=O)[C@H](Cc1c[nH]c2ccccc12)NC(C)=O)[C@@H](C)O)C(=O)N[C@H]1CSSCC(C(=O)N[C@@H](Cc2c[nH]c3ccccc23)C(=O)N2CCC[C@H]2C(=O)N[C@H](CCCCNC(=O)CN2CCN(CC(=O)O)CCN(CC(=O)O)CCN(CC(=O)O)CC2)C(N)=O)NC(=O)[C@H](CC(=O)O)NC(=O)[C@H](Cc2cnc[nH]2)NC(=O)[C@H](Cc2c[nH]c3ncccc23)NC(=O)[C@H](CC(N)=O)NC(=O)[C@H](CC(N)=O)NC1=O (stereo partly drawn) [compound 85, Ac-W-T-I-C(3)-N-N-(7Aza-W)-H-D-C(3)-W-P-[D-Lys(DOTA)]-NH2] (Ac-WTICNN[Trp(7-aza)]HD[ξC]WP[dK](DOTA)-NH2; disulfide 4-10)",1 to 10
6,"CC[C@H](C)[C@H](NC(=O)[C@@H](NC(=O)[C@H](Cc1c[nH]c2ccccc12)NC(C)=O)[C@@H](C)O)C(=O)N[C@H]1CSSC[C@@H](C(=O)N[C@@H](Cc2c[nH]c3ccccc23)C(=O)N2CCC[C@H]2C(=O)N[C@H](CCCCNC(=O)CN2CCN(CC(=O)O)CCN(CC(=O)O)CCN(CC(=O)O)CC2)C(N)=O)NC(=O)[C@H](CC(=O)O)NC(=O)[C@H](Cc2cnc[nH]2)NC(=O)[C@H](Cc2c[nH]c3ccc(OC)cc23)NC(=O)[C@H](CC(N)=O)NC(=O)[C@H](CC(N)=O)NC1=O [compound 86, Ac-W-T-I-C(3)-N-N-(5Ome-W)-H-D-C(3)-W-P-[D-Lys(DOTA)]-NH2] (Ac-WTICNN[Trp(5-OMe)]HDCWP[dK](DOTA)-NH2; disulfide 4-10)",10 to 100
7,"CC[C@H](C)[C@H](NC(=O)[C@@H](NC(=O)[C@H](Cc1c[nH]c2ccccc12)NC(C)=O)[C@@H](C)O)C(=O)N[C@H]1CSSC[C@@H](C(=O)N[C@@H](Cc2c[nH]c3ncccc23)C(=O)N2CCC[C@H]2C(=O)N[C@H](CCCCNC(=O)CN2CCN(CC(=O)O)CCN(CC(=O)O)CCN(CC(=O)O)CC2)C(N)=O)NC(=O)[C@H](CC(=O)O)NC(=O)[C@H](Cc2cnc[nH]2)NC(=O)[C@H](Cc2c[nH]c3ccccc23)NC(=O)[C@H](CC(N)=O)NC(=O)[C@H](CC(N)=O)NC1=O [compound 87, Ac-W-T-I-C(3)-N-N-W-H-D-C(3)-(7Aza-W)-P-[D-Lys(DOTA)]-NH2] (Ac-WTICNNWHDC[Trp(7-aza)]P[dK](DOTA)-NH2; disulfide 4-10)",10 to 100
8,"CC[C@H](C)[C@H](NC(=O)[C@@H](NC(=O)[C@H](Cc1c[nH]c2ccccc12)NC(C)=O)[C@@H](C)O)C(=O)N[C@H]1CSSC[C@@H](C(=O)N[C@@H](Cc2c[nH]c3ccc(OC)cc23)C(=O)N2CCC[C@H]2C(=O)N[C@H](CCCCNC(=O)CN2CCN(CC(=O)O)CCN(CC(=O)O)CCN(CC(=O)O)CC2)C(N)=O)NC(=O)[C@H](CC(=O)O)NC(=O)[C@H](Cc2cnc[nH]2)NC(=O)[C@H](Cc2c[nH]c3ccccc23)NC(=O)[C@H](CC(N)=O)NC(=O)[C@H](CC(N)=O)NC1=O [compound 88, Ac-W-T-I-C(3)-N-N-W-H-D-C(3)-(5Ome-W)-P-[D-Lys(DOTA)]-NH2] (Ac-WTICNNWHDC[Trp(5-OMe)]P[dK](DOTA)-NH2; disulfide 4-10)",100 to 300
9,"CC[C@H](C)[C@H](NC(=O)[C@@H](NC(=O)[C@H](Cc1c[nH]c2ccccc12)NC(C)=O)[C@@H](C)O)C(=O)N[C@H]1CSSC[C@@H](C(=O)NC(Cc2c[nH]c3ccccc23)C(=O)N2CCC[C@H]2C(=O)N[C@H](CCCCNC(=O)COCCOCCOCCOCCOCCOCCOCCOCCNC(=O)CN2CCN(CC(=O)O)CCN(CC(=O)O)CCN(CC(=O)O)CC2)C(N)=O)NC(=O)[C@H](CC(=O)O)NC(=O)[C@H](Cc2cnc[nH]2)NC(=O)[C@H](Cc2c[nH]c3ccccc23)NC(=O)[C@H](CC(N)=O)NC(=O)[C@H](CC(N)=O)NC1=O (stereo partly drawn) [compound 89, Ac-W-T-I-C(3)-N-N-W-H-D-C(3)-W-P-(D-Lys)-PEG8-DOTA-NH2] (Ac-WTICNNWHDC[ξW]P[dK](X2)-NH2; disulfide 4-10)",1 to 10
10,"CCCCCC(=O)NCC[C@@H]1NC(=O)[C@@H](NC(=O)[C@@H](NC(=O)[C@@H](NC(=O)[C@H](Cc2c[nH]c3ccccc23)NC(C)=O)[C@@H](C)O)[C@@H](C)CC)CSSC[C@@H](C(=O)N[C@@H](Cc2c[nH]c3ccccc23)C(=O)N2CCC[C@H]2C(=O)N[C@H](CCCCNC(=O)CN2CCN(CC(=O)O)CCN(CC(=O)O)CCN(CC(=O)O)CC2)C(N)=O)NC(=O)[C@H](CC(=O)O)NC(=O)[C@H](Cc2cnc[nH]2)NC(=O)[C@H](Cc2c[nH]c3ccccc23)NC(=O)[C@H](CC(N)=O)NC1=O [compound 90, Ac-W-T-I-C(3)-(DAB-4-NHCOC5H11)-N-W-H-D-C(3)-W-P-[D-Lys(DOTA)]-NH2] (Ac-WTIC[Dab](Hexanoyl)NWHDCWP[dK](DOTA)-NH2; disulfide 4-10)",10 to 100
11,"CCCCCCCC(=O)NCC[C@@H]1NC(=O)[C@@H](NC(=O)[C@@H](NC(=O)[C@@H](NC(=O)[C@H](Cc2c[nH]c3ccccc23)NC(C)=O)[C@@H](C)O)[C@@H](C)CC)CSSC[C@@H](C(=O)N[C@@H](Cc2c[nH]c3ccccc23)C(=O)N2CCC[C@H]2C(=O)N[C@H](CCCCNC(=O)CN2CCN(CC(=O)O)CCN(CC(=O)O)CCN(CC(=O)O)CC2)C(N)=O)NC(=O)[C@H](CC(=O)O)NC(=O)[C@H](Cc2cnc[nH]2)NC(=O)[C@H](Cc2c[nH]c3ccccc23)NC(=O)[C@H](CC(N)=O)NC1=O [compound 91, Ac-W-T-I-C(3)-(DAB-4-NHCOC7H15)-N-W-H-D-C(3)-W-P-[D-Lys(DOTA)]-NH2] (Ac-WTIC[Dab](Octanoyl)NWHDCWP[dK](DOTA)-NH2; disulfide 4-10)",10 to 100
12,"CCCCCC(=O)NCC[C@@H]1NC(=O)[C@H](Cc2c[nH]c3ccccc23)NC(=O)[C@H](CC(N)=O)NC(=O)[C@H](CC(N)=O)NC(=O)[C@@H](NC(=O)[C@@H](NC(=O)[C@@H](NC(=O)[C@H](Cc2c[nH]c3ccccc23)NC(C)=O)[C@@H](C)O)[C@@H](C)CC)CSSC[C@@H](C(=O)N[C@@H](Cc2c[nH]c3ccccc23)C(=O)N2CCC[C@H]2C(=O)N[C@H](CCCCNC(=O)CN2CCN(CC(=O)O)CCN(CC(=O)O)CCN(CC(=O)O)CC2)C(N)=O)NC(=O)[C@H](CC(=O)O)NC1=O [compound 92, Ac-W-T-I-C(3)-N-N-W-(DAB-4-NHCOC5H11)-D-C(3)-W-P-[D-Lys(DOTA)]-NH2] (Ac-WTICNNW[Dab](Hexanoyl)DCWP[dK](DOTA)-NH2; disulfide 4-10)",10 to 100
